The target of series [1] is Voltage-gated inwardly rectifying potassium channel KCNH2 (Homo sapiens, UniProt Q12809). Put plainly: Inhibition of [3H]dofetilide binding to human ERG expressed in HEK293 cell membranes after 60 mins by liquid scintillation spectrometric analysis.
Series [2] is described as follows: Thermodynamic solubility of the compound in water at pH 7.4 after 24 hrs by HPLC based shake flask method. It is filed as physicochemical. The following applies: read-out: Therm_solubility.

Sequence of Voltage-gated inwardly rectifying potassium channel KCNH2 (Q12809 whole entry): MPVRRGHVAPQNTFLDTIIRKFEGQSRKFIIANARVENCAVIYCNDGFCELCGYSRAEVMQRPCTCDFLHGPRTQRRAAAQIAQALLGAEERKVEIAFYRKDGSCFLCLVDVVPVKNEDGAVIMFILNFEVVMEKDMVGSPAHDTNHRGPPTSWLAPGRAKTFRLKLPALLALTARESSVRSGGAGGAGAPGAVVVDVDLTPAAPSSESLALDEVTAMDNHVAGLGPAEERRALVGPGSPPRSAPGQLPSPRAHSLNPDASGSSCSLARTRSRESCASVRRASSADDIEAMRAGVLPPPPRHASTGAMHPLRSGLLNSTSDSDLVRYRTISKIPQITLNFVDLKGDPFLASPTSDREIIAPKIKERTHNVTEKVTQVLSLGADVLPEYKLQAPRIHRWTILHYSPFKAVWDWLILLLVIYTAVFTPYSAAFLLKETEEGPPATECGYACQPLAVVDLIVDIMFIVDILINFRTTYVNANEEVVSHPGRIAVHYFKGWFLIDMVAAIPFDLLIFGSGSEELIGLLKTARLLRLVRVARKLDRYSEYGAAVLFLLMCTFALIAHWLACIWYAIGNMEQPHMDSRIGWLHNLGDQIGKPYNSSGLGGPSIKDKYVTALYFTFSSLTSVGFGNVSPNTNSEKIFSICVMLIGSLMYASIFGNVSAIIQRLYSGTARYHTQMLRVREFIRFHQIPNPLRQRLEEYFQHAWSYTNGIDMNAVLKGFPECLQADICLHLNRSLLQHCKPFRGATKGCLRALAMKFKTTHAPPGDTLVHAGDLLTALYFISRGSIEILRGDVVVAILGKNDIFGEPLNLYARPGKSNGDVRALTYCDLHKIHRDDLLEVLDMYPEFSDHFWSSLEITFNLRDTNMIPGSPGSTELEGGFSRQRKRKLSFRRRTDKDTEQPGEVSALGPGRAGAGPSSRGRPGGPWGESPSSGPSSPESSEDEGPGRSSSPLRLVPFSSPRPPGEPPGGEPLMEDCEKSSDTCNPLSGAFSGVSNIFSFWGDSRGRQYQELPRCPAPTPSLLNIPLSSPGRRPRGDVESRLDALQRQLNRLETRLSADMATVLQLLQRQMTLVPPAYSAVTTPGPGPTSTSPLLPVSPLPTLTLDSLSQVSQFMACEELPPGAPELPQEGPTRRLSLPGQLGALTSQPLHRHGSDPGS

The Ki is a measure of affinity in units of concentration, obtained from inhibition or displacement. Take `Clc1ccccc1CCN1CCN(CCc2ccccc2Cl)CC1`: the affinity in series [1] corresponds to a Ki of 1080 nM.

In the case of `COc1ccccc1CCN1CCN(CCc2ccccc2OC)CC1`, the affinity in series [1] corresponds to a Ki of 1020 nM. The Ki values of the last two compounds are within 1.5-fold of each other.

In the case of `COc1ccccc1CCN1CCN(CCc2ccccc2)CC1.Cl.Cl`, the solubility thermodynamic at 24 h in series [2] was determined as 33.3 mg/mL. The affinity in series [1] corresponds to a Ki of 2940 nM.

For the origin of these results see ChEMBL document CHEMBL4431349, “Synthesis and in vitro evaluation of water-soluble 1,4-diphenethylpiperazine analogs as novel inhibitors of the vesicular monoamine transporter-2” (Bioorg Med Chem Lett, 2016).
